Results from a compilation of properties of binary mixtures (doi:10.1016/j.molliq.2016.12.089).

Experiment: xn = mol fraction of the nth substance listed
Conditions: 101 kPa

O + C[N+](C)(CCCS(=O)(=O)O)C1CCCCC1.Cc1ccc(S(=O)(=O)[O-])cc1
x2 = 0
Conditions | viscosity [mPa·s]
308.15 K | 0.7218
313.15 K | 0.6564
318.15 K | 0.6071
323.15 K | 0.5538
328.15 K | 0.5064

C[N+](C)(CCCS(=O)(=O)O)C1CCCCC1.Cc1ccc(S(=O)(=O)[O-])cc1 + O
viscosity [mPa·s]
Conditions | 303.15 K | 308.15 K | 313.15 K | 318.15 K | 323.15 K | 328.15 K
x1 = 0.0106 | 1.404 | 1.257 | – | – | 0.9115 | –
x1 = 0.0277 | 2.684 | 2.406 | 2.146 | 1.943 | 1.789 | –
x1 = 0.0603 | 7.903 | – | – | 5.145 | 4.579 | –
x1 = 0.1458 | 78.86 | 62.58 | 48.83 | – | 31.56 | 25.56
x1 = 1 | – | – | 32650 | 17830 | 10187 | 6293
